# Measurements published in patent US11370774B2, “Substituted benzofuran, benzopyrrole, benzothiophene, and structurally related complement inhibitors” (BioCryst Pharmaceuticals, Inc., priority 2018, dated 2022).
# pIC50: −log10 of the molar value.
# Biological target: Factor D (Homo sapiens (Human), UniProt P00746)
# Assay: Factor D esterolytic assay (Z-Lys-SBzl substrate, DTNB, 405 nm)
# Type: biochemical
# Settings: Z-Lys-SBzl 1.29 mM, pH 7.5, 10% DMSO, tested a minimum of three times, read-out: Measured Ki (IC50) Value for Compounds: IC50
# In short: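 Thioester hydrolysis (Z-Lys-SBzl, 1.29 mM) by human Factor D ([…]) detected through DTNB color at 405 nm over 600 sec, minus 690 nm background. Buffer: 100 mM HEPES pH 7.5, 500 mM NaCl, 10% DMSO; optional room-temperature preincubation before substrate. IC50 derived from percent rate inhibition; at least three runs.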
# Sequence of Factor D (P00746 26-253): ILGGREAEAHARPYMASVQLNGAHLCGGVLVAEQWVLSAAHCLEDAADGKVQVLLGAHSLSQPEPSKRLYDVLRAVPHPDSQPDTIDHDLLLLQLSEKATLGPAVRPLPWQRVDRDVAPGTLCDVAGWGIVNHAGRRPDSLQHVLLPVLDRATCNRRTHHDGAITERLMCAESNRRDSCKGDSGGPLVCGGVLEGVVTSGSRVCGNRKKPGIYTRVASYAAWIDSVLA
row,SMILES,pIC50
1,"NCc1cccc(-c2cc(COc3ccccc3CC(=O)O)nc3ccoc23)c1F [Compound 134b, 2-(2-((7-(3-(aminomethyl)-2-fluorophenyl)furo[3,2-b]pyridin-5-yl)methoxy)phenyl)acetic acid]",> 6.00
2,"NCc1ccc(-c2cc(COc3ccccc3CC(=O)O)cc3ccoc23)o1 [Compound 207c, 2-(2-((7-(5-(aminomethyl)furan-2-yl)benzofuran-5-yl)methoxy)phenyl)acetic acid]",> 6.00
3,"CC(C)Cc1cc2cc(COc3ccccc3CC(=O)O)cc(-c3ccnc(CN)c3)c2o1 [Compound 219c, 2-(2-((7-(2-(aminomethyl)pyridin-4-yl)-2-isobutylbenzofuran-5-yl)methoxy)phenyl)acetic acid]",> 6.00
4,"NCc1cc(-c2cc(COc3ccccc3CC(=O)O)cc3ccoc23)ccn1 [Compound 74c, 2-(2-((7-(2-(aminomethyl)pyridin-4-yl)benzofuran-5-yl)methoxy)phenyl)acetic acid]",> 6.00
5,"Cc1ccc(CC(=O)O)c(OCc2cc(-c3ccnc(CN)c3)c3occc3c2F)c1 [Compound 346c, 2-(2-((7-(2-(aminomethyl)pyridin-4-yl)-4-fluorobenzofuran-5-yl)methoxy)-4-methylphenyl)acetic acid]",> 6.00
6,"CCOC(=O)Cc1ccccc1NC(=O)c1nc(-c2cccc(CN)c2)c2cccn2n1 [Compound 5g, ethyl 2-(2-(4-(3-(aminomethyl)phenyl)pyrrolo[2,1-f][1,2,4]triazine-2-carboxamido)phenyl)acetate]",> 6.00
7,"NCc1cccc(-c2cc(COc3ccccc3CC(=O)O)c(F)c3ccoc23)c1F [Compound 137b, 2-(2-((7-(3-(aminomethyl)-2-fluorophenyl)-4-fluorobenzofuran-5-yl)methoxy)phenyl)acetic acid]",> 6.00
8,"NCc1cccc(-c2cc(COc3ccccc3CC(=O)O)cc3cc(C(O)C(F)(F)F)oc23)c1 (centres unmarked) [Compound 103d, 2-(2-((7-(3-(aminomethyl)phenyl)-2-(2,2,2-trifluoro-1-hydroxyethyl)benzofuran-5-yl)methoxy)phenyl)acetic acid]",> 6.00
9,"NCc1cccc(-c2cc(COc3ccccc3CC(=O)O)cc3c2ccn3S(=O)(=O)C2CC2)c1 [Compound 212e, 2-(2-((4-(3-(aminomethyl)phenyl)-1-(cyclopropylsulfonyl)-1H-indol-6-yl)methoxy)phenyl)acetic acid]",> 6.00
10,"NCc1cccc(-c2cc(COc3ccccc3CC(=O)O)cc3c(C(F)(F)F)coc23)c1 [Compound 154g, 2-(2-((7-(3-(aminomethyl)phenyl)-3-(trifluoromethyl)benzofuran-5-yl)methoxy)phenyl)acetic acid]",> 6.00
11,"NCc1cccc(-c2cc(COc3ccccc3CC(=O)O)cc3cc(CCO)oc23)c1F [Compound 179b, 2-(2-((7-(3-(aminomethyl)-2-fluorophenyl)-2-(2-hydroxyethyl)benzofuran-5-yl)methoxy)phenyl)acetic acid]",> 6.00
12,"NCc1cccc(-c2cc(COc3ccccc3CC(=O)O)cc3sc(Cl)cc23)c1 [Compound 215h, 2-(2-((4-(3-(aminomethyl)phenyl)-2-chlorobenzo[b]thiophen-6-yl)methoxy)phenyl)acetic acid]",> 6.00
13,"Cc1ccc(CC(=O)O)c(OCc2cc(-c3ccnc(CN)c3F)c3occc3c2)c1C [Compound 305d, 2-(2-((7-(2-(aminomethyl)-3-fluoropyridin-4-yl)benzofuran-5-yl)methoxy)-3,4-dimethylphenyl)acetic acid]",> 6.00
14,"NCc1cccc(-c2cc(C(=O)Nc3ccccc3CC(=O)O)cc3cccnc23)c1 [Compound 13c, 2-(2-(8-(3-(aminomethyl)phenyl)quinoline-6-carboxamido)phenyl)acetic acid]",5.00 to 6.00
15,"NC(CF)c1cccc(-c2cc(COc3ccccc3CC(=O)O)cc3ccoc23)c1F (single isomer, unassigned; (+)) [Compound 402f, (+)-2-(2-((7-(3-(1-amino-2-fluoroethyl)-2-fluorophenyl)benzofuran-5-yl)methoxy)phenyl)acetic acid]",> 6.00
16,"CC(C)Cc1cc2cc(COc3ccccc3CC(=O)O)cc(-c3cccc(CN)c3F)c2o1 [Compound 200e, 2-(2-((7-(3-(aminomethyl)-2-fluorophenyl)-2-isobutylbenzofuran-5-yl)methoxy)phenyl)acetic acid]",> 6.00
17,"Cc1ccc(CC(=O)O)c(OCc2cc(-c3ccnc(CN)c3F)c3occc3c2F)c1 [Compound 342e, 2-(2-((7-(2-(aminomethyl)-3-fluoropyridin-4-yl)-4-fluorobenzofuran-5-yl)methoxy)-4-methylphenyl)acetic acid]",> 6.00
18,"Cc1ccc(CC(=O)O)c(OCc2cc(-c3cccc(CN)c3F)c3occc3c2)c1C [Compound 304b, 2-(2-((7-(3-(aminomethyl)-2-fluorophenyl)benzofuran-5-yl)methoxy)-3,4-dimethylphenyl)acetic acid]",> 6.00
19,"CCOC(=O)Cc1ccccc1NC(=O)c1cc(-c2cccc(CN)c2)c2cc[nH]c2n1 [Compound 14c, ethyl 2-(2-(4-(3-(aminomethyl)phenyl)-1H-pyrrolo[2,3-b]pyridine-6-carboxamido)phenyl)acetate]",< 5.00
20,"NCc1cc(-c2cc(COc3ccccc3CC(=O)O)cc3cc(F)oc23)ccn1 [Compound 301b, 2-(2-((7-(2-(aminomethyl)pyridin-4-yl)-2-fluorobenzofuran-5-yl)methoxy)phenyl)acetic acid]",> 6.00
21,"Nc1ccc(-c2cc(COc3ccccc3CC(=O)O)cc3ccoc23)cc1 [Compound 183c, 2-(2-((7-(4-aminophenyl)benzofuran-5-yl)methoxy)phenyl)acetic acid]",< 5.00
22,"CC(C)S(=O)(=O)n1ccc2c(-c3cccc(CN)c3)cc(COc3ccccc3CC(=O)O)cc21 [Compound 228e, 2-(2-((4-(3-(aminomethyl)phenyl)-1-(isopropylsulfonyl)-1H-indol-6-yl)methoxy)phenyl)acetic acid]",> 6.00
23,"Cc1cc(CC(=O)O)c(OCc2cc(-c3cccc(CN)c3)c3occc3c2)cc1C [Compound 276f, 2-(2-((7-(3-(aminomethyl)phenyl)benzofuran-5-yl)methoxy)-4,5-dimethylphenyl)acetic acid]",> 6.00
24,"NCc1cc(-c2cc(COc3ccccc3CC(=O)O)cc3c2ccn3S(=O)(=O)C2CC2)ccn1 [Compound 232c, 2-(2-((4-(2-(aminomethyl)pyridin-4-yl)-1-(cyclopropylsulfonyl)-1H-indol-6-yl)methoxy)phenyl)acetic acid]",> 6.00

# More lines, now with the values ahead:
row,pIC50,SMILES
1,> 6.00,"Cc1cc(CC(=O)O)c(OCc2cc(-c3ccnc(CN)c3F)c3occc3c2)cc1C [Compound 430c, 2-(2-((7-(2-(aminomethyl)-3-fluoropyridin-4-yl)benzofuran-5-yl)methoxy)-4,5-dimethylphenyl)acetic acid]"
2,> 6.00,"COc1ccc(CC(=O)O)c(OCc2cc(-c3ccnc(CN)c3)c3occ(C(F)(F)F)c3c2)c1 [Compound 499b, 2-(2-((7-(2-(aminomethyl)pyridin-4-yl)-3-(trifluoromethyl)benzofuran-5-yl)methoxy)-4-methoxyphenyl)acetic acid]"
3,> 6.00,"NCc1cc(-c2cc(COc3ccccc3CC(=O)O)cc3c2ccn3C(F)(F)F)ccn1 [Compound 532d, 2-(2-((4-(2-(aminomethyl)pyridin-4-yl)-1-(trifluoromethyl)-1H-indol-6-yl)methoxy)phenyl)acetic acid]"
4,< 5.00,"NCc1cccc(-c2cc(NC(=O)[C@H]3CCCN3CC(=O)O)cc3ccoc23)c1 [Compound 408e, (R)-2-(2-((7-(3-(aminomethyl)phenyl)benzofuran-5-yl)carbamoyl)pyrrolidin-1-yl)acetic acid]"
5,> 6.00,"NCc1cccc(-c2cc(COc3cc(CN)ccc3CC(=O)O)cc3cc(CO)oc23)c1 [Compound 446c, 2-(4-(aminomethyl)-2-((7-(3-(aminomethyl)phenyl)-2-(hydroxymethyl)benzofuran-5-yl)methoxy)phenyl)acetic acid]"
6,> 6.00,"NCc1cccc(-c2cc(COc3ccccc3CC(=O)O)cc3[nH]c(C(F)(F)F)cc23)c1F [Compound 501f, 2-(2-((4-(3-(aminomethyl)-2-fluorophenyl)-2-(trifluoromethyl)-1H-indol-6-yl)methoxy)phenyl)acetic acid]"
7,> 6.00,"COCc1cc2cc(COc3cc(F)ccc3CC(=O)O)cc(-c3ccnc(CN)c3F)c2o1 [Compound 514d, 2-(2-((7-(2-(aminomethyl)-3-fluoropyridin-4-yl)-2-(methoxymethyl)benzofuran-5-yl)methoxy)-4-fluorophenyl)acetic acid]"
8,> 6.00,"COc1ccc(CC(=O)O)c(OCc2cc(-c3ccnc(CN)c3F)c3occ(C(F)(F)F)c3c2)c1 [Compound 498c, 2-(2-((7-(2-(aminomethyl)-3-fluoropyridin-4-yl)-3-(trifluoromethyl)benzofuran-5-yl)methoxy)-4-methoxyphenyl)acetic acid]"
9,> 6.00,"Cc1ccc(CC(=O)O)c(OCc2cc(-c3cccc(CN)c3F)c3ccn(C(C)C)c3c2)c1 [Compound 353b, 2-(2-((4-(3-(aminomethyl)-2-fluorophenyl)-1-isopropyl-1H-indol-6-yl)methoxy)-4-methylphenyl)acetic acid]"
10,> 6.00,"NCc1cccc(-c2cc(COc3ccc(F)cc3CC(=O)O)c(F)c3ccoc23)c1 [Compound 386c, 2-(2-((7-(3-(aminomethyl)phenyl)-4-fluorobenzofuran-5-yl)methoxy)-5-fluorophenyl)acetic acid]"
11,> 6.00,"NCc1cccc(-c2cc(N(Cc3ccccc3CC(=O)O)C(=O)OCc3ccccc3)cc3ccoc23)c1 [Compound 404c, 2-(2-(((7-(3-(aminomethyl)phenyl)benzofuran-5-yl)((benzyloxy)carbonyl)amino)methyl)phenyl)acetic acid]"
